Tests used:
[1] = target: T1, D4 (h) Dopamine (Homo sapiens, UniProt P21917); experiment: Cell-based functional GPCR assay, antagonist effect (cAMP); settings: read-out: % Inhibition of Control Agonist Response
T1 sequence (P21917 1-419): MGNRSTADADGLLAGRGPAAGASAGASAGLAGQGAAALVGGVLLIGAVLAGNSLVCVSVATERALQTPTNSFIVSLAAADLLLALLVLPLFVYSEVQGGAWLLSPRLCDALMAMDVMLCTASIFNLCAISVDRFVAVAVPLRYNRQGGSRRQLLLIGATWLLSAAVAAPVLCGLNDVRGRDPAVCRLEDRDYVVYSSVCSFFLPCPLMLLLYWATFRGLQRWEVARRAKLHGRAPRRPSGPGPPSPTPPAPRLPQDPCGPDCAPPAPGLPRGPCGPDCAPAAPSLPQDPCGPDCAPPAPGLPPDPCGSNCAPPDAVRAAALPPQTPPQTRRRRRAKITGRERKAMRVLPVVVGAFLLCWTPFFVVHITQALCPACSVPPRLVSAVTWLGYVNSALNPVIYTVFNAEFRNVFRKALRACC
Procedure: (§1) A functional GPCR cell-based assay presents readouts of multiple second messengers including cAMP for Gi and Gs-coupled receptors and IP1 and IP3/calcium flux for Gq-coupled receptors. Functional assays were conducted at Eurofins Cerep (Le Bois I’Eveque, France) using transected cells expressing human cloned receptors. The in-house functional assay protocol (https://www.eurofinsdiscoveryservices.com/cms/cms-content/services/in-vitro-assays/gpcrs/functional/) and experimental conditions are shown in Supplementary Table S1. Stable cell lines expressing recombinant GPCRs were used in this study.
(§2) . Following incubation, cells were lysed and a fluorescence acceptor (D2-labeled cAMP) and fluorescence donor (anti-cAMP antibody with europium cryptate) were added. After 60 min at room temperature, fluorescence transfer was measured at λex = 337 nm and λem = 620 and 665 nm using a microplate reader (Envison, Perkin Elmer, Waltham, MA, USA). Cyclic AMP concentration was determined by dividing the signal measured at 665 nm by that measured at 620 nm (ratio). […].
(§3) Cellular agonist effect was calculated as the percentage of the control response to a known reference agonist for each target and the cellular antagonist effect was calculated as the percentage inhibition of the control reference agonist response for each target. Results are expressed as a percentage of control agonist response or inverse agonist response (measured response/control response × 100) and as percent inhibition of control agonist response [100 − (measured response/control response × 100)] obtained in the presence of the eckol.

[2] = target: T2, D3 (h) Dopamine (Homo sapiens, UniProt P35462); experiment: as above; settings: read-out: % Inhibition of Control Agonist Response
T2 sequence (P35462 whole entry): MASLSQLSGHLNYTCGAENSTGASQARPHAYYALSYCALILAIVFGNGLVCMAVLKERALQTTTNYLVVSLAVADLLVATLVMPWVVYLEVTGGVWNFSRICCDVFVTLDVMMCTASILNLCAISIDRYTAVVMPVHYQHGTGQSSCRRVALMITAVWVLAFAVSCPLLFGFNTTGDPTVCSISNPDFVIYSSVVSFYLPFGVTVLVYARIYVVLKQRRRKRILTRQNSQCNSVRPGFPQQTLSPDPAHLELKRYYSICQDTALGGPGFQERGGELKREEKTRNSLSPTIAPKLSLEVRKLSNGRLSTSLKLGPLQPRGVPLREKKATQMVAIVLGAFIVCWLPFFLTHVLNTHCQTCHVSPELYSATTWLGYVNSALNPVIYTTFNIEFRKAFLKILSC
Procedure: as §1, §2, §3

[3] = target: T3, D1 (h) Dopamine (Homo sapiens, UniProt P21728); experiment: as above; settings: read-out: % Inhibition of Control Agonist Response
T3 sequence (P21728 whole entry): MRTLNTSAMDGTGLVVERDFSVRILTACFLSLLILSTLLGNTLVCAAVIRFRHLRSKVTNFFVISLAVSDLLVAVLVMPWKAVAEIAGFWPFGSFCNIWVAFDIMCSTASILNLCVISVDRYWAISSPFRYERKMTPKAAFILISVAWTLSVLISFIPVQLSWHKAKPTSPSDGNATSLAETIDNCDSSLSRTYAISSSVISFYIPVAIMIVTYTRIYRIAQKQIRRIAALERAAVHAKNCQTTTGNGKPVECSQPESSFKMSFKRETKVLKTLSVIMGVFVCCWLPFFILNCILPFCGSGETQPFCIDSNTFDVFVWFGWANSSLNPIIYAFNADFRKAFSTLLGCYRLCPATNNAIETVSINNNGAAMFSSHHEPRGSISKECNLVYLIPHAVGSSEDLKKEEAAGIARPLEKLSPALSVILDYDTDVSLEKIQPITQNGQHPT
Procedure: as §1, §2, §3

[4] = target: T4, 5-HT1A (h) Serotonin (Homo sapiens, UniProt P08908); experiment: Cell-based functional GPCR assay, antagonist effect; settings: read-out: % Inhibition of Control Agonist Response
T4 sequence (P08908 1-422): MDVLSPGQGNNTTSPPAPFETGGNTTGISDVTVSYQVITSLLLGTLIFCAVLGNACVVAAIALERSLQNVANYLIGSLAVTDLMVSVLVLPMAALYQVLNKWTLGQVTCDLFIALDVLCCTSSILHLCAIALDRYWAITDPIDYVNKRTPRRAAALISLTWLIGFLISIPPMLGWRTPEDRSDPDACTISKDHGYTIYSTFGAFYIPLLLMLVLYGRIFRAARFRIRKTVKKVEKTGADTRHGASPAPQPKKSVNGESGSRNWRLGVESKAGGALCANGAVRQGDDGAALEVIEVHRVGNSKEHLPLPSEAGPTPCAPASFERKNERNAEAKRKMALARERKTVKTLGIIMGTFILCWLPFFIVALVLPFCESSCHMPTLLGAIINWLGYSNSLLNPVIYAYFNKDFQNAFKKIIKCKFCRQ
Procedure: as §1
(§4) The method used to quantify the intracellular [Ca^2+] level varied slightly according to receptor type. However, in general, cells expressing different receptors (Table 1) were transfected with an expression vector encoding a receptor polypeptide and were allowed to grow for a time period sufficient for that receptor to be expressed. A fluorescent probe (Fluo8 Direct, Invitrogen, Carlsbad, CA, USA) mixed with probencid in HBSS buffer (Invitrogen, Carlsbad, CA, USA) supplemented with […] (Invitrogen) (pH 7.4) was then added to each well and allowed to equilibrate with the cells for 60 min at 37 °C. Thereafter, assay plates were positioned in a microplate reader (CellLux, PerkinElmer, Waltham, MA, USA) and eckol (25 and 50 μM), reference agonist, or HBSS buffer (basal control) were added, and measurements of the change in fluorescence intensity, which varies proportionally to the free cytosolic Ca^2+ ion concentration, were taken. Standard reference control (agonist and antagonist) values are presented in Table 1, and controls were included in each experiment at several concentrations to generate a concentration-response curve from which to calculate EC50 values.
as §3

[5] = target: T5, M5 (h) Acetylcholine (muscarinic) (Homo sapiens, UniProt P08912); experiment: as above; settings: read-out: % Inhibition of Control Agonist Response
T5 sequence (P08912 1-532): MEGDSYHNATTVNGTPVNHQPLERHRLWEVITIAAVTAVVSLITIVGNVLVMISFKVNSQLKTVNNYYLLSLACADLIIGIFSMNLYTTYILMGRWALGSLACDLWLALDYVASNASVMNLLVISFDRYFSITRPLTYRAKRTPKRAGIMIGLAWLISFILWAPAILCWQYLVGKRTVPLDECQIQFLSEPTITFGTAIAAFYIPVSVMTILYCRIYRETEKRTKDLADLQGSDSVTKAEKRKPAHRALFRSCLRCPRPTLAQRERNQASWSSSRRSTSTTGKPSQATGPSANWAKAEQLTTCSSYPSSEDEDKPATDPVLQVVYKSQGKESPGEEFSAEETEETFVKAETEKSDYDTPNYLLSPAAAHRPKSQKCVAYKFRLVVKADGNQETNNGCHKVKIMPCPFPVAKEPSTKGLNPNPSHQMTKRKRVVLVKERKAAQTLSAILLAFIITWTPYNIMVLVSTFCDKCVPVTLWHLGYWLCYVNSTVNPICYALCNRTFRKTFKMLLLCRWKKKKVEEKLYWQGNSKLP
Procedure: as §1, §4, §3

[6] = target: T6, NK1 (h) Tachykinin (Homo sapiens, UniProt P25103); experiment: as above; settings: read-out: % Inhibition of Control Agonist Response
T6 sequence (P25103 whole entry): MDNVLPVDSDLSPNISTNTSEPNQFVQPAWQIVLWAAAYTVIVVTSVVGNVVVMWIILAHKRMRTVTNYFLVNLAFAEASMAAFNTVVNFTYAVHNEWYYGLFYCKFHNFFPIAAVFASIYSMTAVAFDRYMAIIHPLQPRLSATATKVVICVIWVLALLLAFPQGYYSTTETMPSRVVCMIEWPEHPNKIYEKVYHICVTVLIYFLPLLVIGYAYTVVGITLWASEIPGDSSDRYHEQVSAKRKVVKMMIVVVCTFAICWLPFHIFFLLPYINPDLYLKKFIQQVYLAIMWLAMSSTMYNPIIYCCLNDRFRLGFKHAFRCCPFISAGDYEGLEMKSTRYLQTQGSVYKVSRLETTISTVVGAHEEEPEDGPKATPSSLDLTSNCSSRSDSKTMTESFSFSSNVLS
Procedure: as §1, §4, §3

[7] = target: T7, V1A (h) Vasopressin/Oxytocin (Homo sapiens, UniProt P37288); experiment: as above; settings: read-out: % Inhibition of Control Agonist Response
T7 sequence (P37288 whole entry): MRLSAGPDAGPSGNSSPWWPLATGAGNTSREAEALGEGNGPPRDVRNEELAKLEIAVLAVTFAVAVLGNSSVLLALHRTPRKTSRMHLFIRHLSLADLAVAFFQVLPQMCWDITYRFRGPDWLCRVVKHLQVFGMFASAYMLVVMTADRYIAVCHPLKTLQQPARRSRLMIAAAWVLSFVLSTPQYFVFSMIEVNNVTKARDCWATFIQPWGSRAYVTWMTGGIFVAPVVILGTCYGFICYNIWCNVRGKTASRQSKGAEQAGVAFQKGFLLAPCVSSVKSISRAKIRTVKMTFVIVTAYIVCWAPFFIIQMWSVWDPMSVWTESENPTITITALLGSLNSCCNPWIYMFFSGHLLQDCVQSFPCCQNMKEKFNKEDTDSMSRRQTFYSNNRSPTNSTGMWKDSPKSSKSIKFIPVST
Procedure: as §1, §4, §3

[8] = target: T4, 5-HT1A (h) Serotonin; experiment: Cell-based functional GPCR assay, agonist effect; settings: read-out: % of Control Agonist Response
Procedure: as §1, §4, §3

[9] = target: T5, M5 (h) Acetylcholine (muscarinic); experiment: Cell-based functional GPCR assay, agonist effect; settings: read-out: % of Control Agonist Response
Procedure: as §1, §4, §3

[10] = target: T6, NK1 (h) Tachykinin; experiment: Cell-based functional GPCR assay, agonist effect; settings: read-out: % of Control Agonist Response
Procedure: as §1, §4, §3

[11] = target: T7, V1A (h) Vasopressin/Oxytocin; experiment: Cell-based functional GPCR assay, agonist effect; settings: read-out: % of Control Agonist Response
Procedure: as §1, §4, §3

[12] = target: T1, D4 (h) Dopamine; experiment: Cell-based functional GPCR assay, agonist effect (cAMP)
Procedure: as §1, §2, §3

[13] = target: T2, D3 (h) Dopamine; experiment: as above
Procedure: as §1, §2, §3

[14] = target: T3, D1 (h) Dopamine; experiment: as above; settings: read-out: % of Control Agonist Response
Procedure: as §1, §2, §3

[15] = target: T6, NK1 (h) Tachykinin; set-up: method as in Eurofins Panlab; settings: as reported by Eurofins Panlab, ref Eurofins Panlab, read-out: Reference Antagonists of Respective Target Receptors IC50; cited from earlier work
[16] = 25 μM, read-out: % of Control Agonist Response
[17] = 50 μM, read-out: % of Control Agonist Response
[18] = read-out: EC50 (concentration producing a half-maximal agonist response)

Structure (SMILES): Oc1cc(O)cc(Oc2c(O)cc(O)c3c2Oc2c(O)cc(O)cc2O3)c1 [Eckol, eckol]
- inhibition at 25 µM ([1]; 25 μM): 1.33 ± 1.7%
- inhibition at 50 µM ([1]; 50 μM): -3.33 ± 4.7%
- inhibition at 25 µM ([2]; 25 μM): -9 ± 6.98%
- inhibition at 50 µM ([2]; 50 μM): -15.1 ± 2.51%
- inhibition at 25 µM ([3]; 25 μM): 11.6 ± 2.15%
- inhibition at 50 µM ([3]; 50 μM): 1.89 ± 1.62%
- inhibition at 25 µM ([4]; 25 μM): 6.17 ± 10.3%
- inhibition at 50 µM ([4]; 50 μM): 3.49 ± 4.33%
- inhibition at 25 µM ([5]; 25 μM): 1 ± 0.4%
- inhibition at 50 µM ([5]; 50 μM): -4.8 ± 2.25%
- inhibition at 25 µM ([6]; 25 μM): -11.3 ± 6.37%
- inhibition at 50 µM ([6]; 50 μM): -4.32 ± 3.33%
- inhibition at 25 µM ([7]; 25 μM): -13.5 ± 6.93%
- inhibition at 50 µM ([7]; 50 μM): -4.26 ± 11.1%
- activity at 25 µM ([8]; 25 μM): -1.78 ± 0.45%
- activity at 50 µM ([8]; 50 μM): -3.04 ± 1.23%
- activity at 25 µM ([9]; 25 μM): 0.38 ± 0.1%
- activity at 50 µM ([9]; 50 μM): 0.39 ± 0.46%
- activity at 25 µM ([10]; 25 μM): -2.32 ± 0.26%
- activity at 50 µM ([10]; 50 μM): -2.99 ± 0.21%
- activity at 25 µM ([11]; 25 μM): -8.91 ± 3.2%
- activity at 50 µM ([11]; 50 μM): -12.5 ± 0.51%
- activity at 25 µM [12, 16]: 36.5 ± 10.9%
- activity at 50 µM [12, 17]: 54.7 ± 7.05%
- EC50 [12, 18]: 42.6 ± 2.54 µM
- activity at 25 µM [13, 16]: 10.6 ± 4.16%
- activity at 50 µM [13, 17]: 53.1 ± 6.67%
- EC50 [13, 18]: 48.6 ± 3.21 µM
- activity at 25 µM ([14]; 25 μM): -0.58 ± 2.46%
- activity at 50 µM ([14]; 50 μM): -2.77 ± 1.27%

Structure (SMILES): FC(F)(F)c1cc(CO[C@H]2CCCN[C@H]2c2ccccc2)cc(C(F)(F)F)c1 [L 733,060]
- IC50 [15]: 0.00021 µM

— article PMC6409773 (Marine Drugs, 2019)
